Experimental data taken from patent publication US20030134884A1, “Neovascularization inhibitors” (priority 2000, published 2003).

Columns and labels:
[1] = tested on: Human Microvascular Endothelial Cells (HMVE); assay: human microvascular endothelial cell growth inhibitory assay (Alamar Blue); assay type: cell-based; conditions: 72 h, cultured 3 days, 2% bovine fetal serum, Alamar Blue fluorescence, control well = 100%, read-out: IC50 (concentration showing 50% growth inhibitory activity)
Protocol: The angiogenesis inhibitory action of compound (II) and an insulin sensitizer other than compound (II) was determined by a human microvascular endothelial cell growth inhibitory assay method. Human microvascular endothelial cells [Human Microvascular Endothelial Cells (HMVE), (produced by KURABO INDUSTRIES LTD., Japan)] (2×10^4/ml medium, 0.1 ml/well) in MCDB107 medium (GIBCO, US) containing 2% bovine fetal serum was dispensed to a 96 well collagen-coated microplate (produced by SUMITOMO BAKELITE CO., LTD., Japan) and a dimethylformamide (DMF) solution containing various test compounds was diluted and added to the test group. The cells were cultured at 37° C. in 5% CO2 for 3 days. Alamar Blue was added to each well and reacted at 37° C. for 4 hr. Using a fluorometer (Fluoroskan Ascent, produced by LabSystems, US), the fluorescence intensity was measured and the cell count of the well was compared with that of control. Taking the cell count of the control well as 100%, the concentration (IC50) showing 50% growth inhibitory activity was calcualted.

Compound | IC50 [1] | melting point
Cc1oc(-c2ccccc2)nc1COc1ccc(CO/N=C(\CCC(=O)O)c2ccccc2)cc1 [compound (7), E-4-[4-(5-methyl-2-phenyl-4-oxazolylmethoxy)benzyloxyimino]-4-phenylbutyric acid] | 23 µM | 
Cc1c(C)c2c(c(C)c1O)CCC(C)(COc1ccc(CC3SC(=O)NC3=O)cc1)O2 (stereo not shown) [compound (B), 5[[4-[(3,4-dihydro-6-hydroxy-2,5,7,8-tetramethyl-2H-1-benzopyran-2-yl)methoxy]phenyl]methyl]-2,4-thiazolidinedione] | 107 µM | 
Cc1sc(-c2ccccc2)nc1COc1ccc(CCC[C@H]2OC(=O)NC2=O)cc1 [compound (D), (R)-(+)-5-[3-[4-[(5-methyl-2-phenyl-4-thiazolyl)methoxy]phenyl]propyl]-2,4-oxazolidinedione] | 496 µM | 130 to 131 °C
